{
  "source": "paper PMC7933434",
  "about": "“Entropy-driven binding of gut bacterial β-glucuronidase inhibitors ameliorates irinotecan-induced toxicity” (Communications Biology, 2021)",
  "key": {"[1]": {"molecular_target": "EcGUS (Escherichia coli GUS) (Escherichia coli, UniProt P05804)", "sequence (P05804 whole entry)": "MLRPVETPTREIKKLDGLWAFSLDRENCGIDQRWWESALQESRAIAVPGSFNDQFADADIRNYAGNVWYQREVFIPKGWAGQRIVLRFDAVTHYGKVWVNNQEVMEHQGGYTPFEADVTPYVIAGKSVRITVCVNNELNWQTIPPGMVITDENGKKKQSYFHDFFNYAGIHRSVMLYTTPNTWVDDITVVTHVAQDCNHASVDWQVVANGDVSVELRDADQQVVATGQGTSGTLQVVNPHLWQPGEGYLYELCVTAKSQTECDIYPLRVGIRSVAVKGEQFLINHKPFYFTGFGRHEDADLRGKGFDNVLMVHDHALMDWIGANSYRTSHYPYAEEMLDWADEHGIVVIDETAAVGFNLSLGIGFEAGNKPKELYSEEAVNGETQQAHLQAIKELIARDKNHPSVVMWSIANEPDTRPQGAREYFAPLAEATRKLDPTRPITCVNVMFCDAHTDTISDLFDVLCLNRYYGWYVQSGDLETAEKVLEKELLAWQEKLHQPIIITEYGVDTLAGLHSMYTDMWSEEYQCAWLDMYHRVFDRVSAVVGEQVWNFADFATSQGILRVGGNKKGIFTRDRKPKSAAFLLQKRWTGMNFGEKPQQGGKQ", "experiment": "biochemical"}, "[2]": {"molecular_target": "BdGUS (Bifidobacterium dentium GUS) (Bifidobacterium dentium, UniProt D2Q7B1)", "sequence (D2Q7B1 1-668)": "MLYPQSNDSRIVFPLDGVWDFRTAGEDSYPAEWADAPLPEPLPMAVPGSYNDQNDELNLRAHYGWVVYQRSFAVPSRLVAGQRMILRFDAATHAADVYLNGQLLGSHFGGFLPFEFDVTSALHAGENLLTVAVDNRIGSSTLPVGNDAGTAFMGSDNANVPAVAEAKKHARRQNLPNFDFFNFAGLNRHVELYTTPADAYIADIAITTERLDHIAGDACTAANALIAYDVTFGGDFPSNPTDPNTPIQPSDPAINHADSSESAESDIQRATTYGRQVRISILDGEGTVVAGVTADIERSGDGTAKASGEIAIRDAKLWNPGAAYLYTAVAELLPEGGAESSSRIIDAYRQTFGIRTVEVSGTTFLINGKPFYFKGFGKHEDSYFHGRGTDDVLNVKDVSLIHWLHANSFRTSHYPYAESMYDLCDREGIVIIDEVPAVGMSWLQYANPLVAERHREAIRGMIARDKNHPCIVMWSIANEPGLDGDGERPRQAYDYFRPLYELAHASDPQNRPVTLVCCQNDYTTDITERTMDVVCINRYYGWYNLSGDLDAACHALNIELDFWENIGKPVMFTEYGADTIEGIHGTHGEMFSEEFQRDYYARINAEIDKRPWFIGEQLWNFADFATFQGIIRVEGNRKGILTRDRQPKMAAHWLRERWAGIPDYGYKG", "experiment": "biochemical", "design": "GUS activity (hydrolysis rate of MUG) / 1/v: unit not given here"}, "[3]": {"molecular_target": "T1, GUS activity in live E. coli cells (Escherichia coli, UniProt P05804)", "T1 construct": "endogenous in cells", "T1 sequence (P05804 whole entry)": "as the sequence (P05804 whole entry) above", "experiment": "GUS activity in live E. coli cells", "type": "cell-based", "settings": "E. coli cells (OD600 = 1.89) treated for 30 min, then GUS activity measured", "description": "To examine if inhibitors 2–4 could inhibit GUS activity in vivo, E. coli cells (OD600 = 1.89) were treated with each of 2–4 for 30 min, after which GUS activity was measured. […]; 3, 18.6 nM; and 4, 3.69 nM (Supplementary Fig. 9a). […]. […] Additionally, to evaluate cell viability, E. coli cultures were treated with ampicillin (positive control), DMSO, or inhibitors 2–4 (100 μM) for 6 h.\nSupplementary Figure 9 Inhibitors 2–4 sho w in hi biti on ag ai n st G US acti vity in l i ve E. co li cell s. (a) GUS activity was measured in live E. coli. Af t e r E. coli were incubated with DMSO or an inhibitor ( 2–4), GUS activity was measured using 4-methylumbelliferyl-β-glucuronide as the substrate. The release of fluorescent 4-methylumbelliferone was detected at 445 nm (excitation, 345 nm). Compared with the negative c ont rol (DMSO ), […]\n[…]. (b) Colony formation assay. None of the inhibitors affected bacterial growth. As a negative control, E. coli cells were incubated with ampicillin (100 μg/mL). Results are expressed as the mean of triplicate samples ± SEM.\n(1 picture or pasted object on this page, not shown here)"}, "HsGUS (human GUS)": {"molecular_target": "T2, HsGUS (human GUS) (Homo sapiens, UniProt P08236)", "T2 construct": "HsGUS was prepared as described[37]; made in house", "T2 sequence (P08236 23-651)": "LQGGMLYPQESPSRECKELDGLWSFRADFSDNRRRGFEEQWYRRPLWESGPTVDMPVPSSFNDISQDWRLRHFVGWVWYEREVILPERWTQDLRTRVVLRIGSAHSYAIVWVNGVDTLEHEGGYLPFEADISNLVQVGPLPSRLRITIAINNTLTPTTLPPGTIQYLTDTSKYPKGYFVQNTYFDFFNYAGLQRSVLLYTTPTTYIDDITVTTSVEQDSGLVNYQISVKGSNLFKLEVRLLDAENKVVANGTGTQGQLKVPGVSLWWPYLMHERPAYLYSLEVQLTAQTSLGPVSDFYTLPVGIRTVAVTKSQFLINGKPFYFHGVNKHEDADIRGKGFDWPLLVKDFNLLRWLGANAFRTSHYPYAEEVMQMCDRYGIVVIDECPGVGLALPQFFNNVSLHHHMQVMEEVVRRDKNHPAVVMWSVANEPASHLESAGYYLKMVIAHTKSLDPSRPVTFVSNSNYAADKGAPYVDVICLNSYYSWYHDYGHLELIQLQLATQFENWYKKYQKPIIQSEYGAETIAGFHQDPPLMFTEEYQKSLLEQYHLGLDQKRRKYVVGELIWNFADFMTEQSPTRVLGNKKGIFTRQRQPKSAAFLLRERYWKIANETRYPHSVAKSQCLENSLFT", "experiment": "GUS inhibition assay, hydrolysis of 4-methylumbelliferyl-β-glucuronide, HsGUS", "type": "biochemical", "design": "GUS activity (hydrolysis rate of MUG): unit not given here"}, "[4]": {"settings": "[Inhibitor 4] = 0.05 μM, [MUG] 0.08 mM"}, "[5]": {"settings": "[Inhibitor 4] = 0.05 μM, [MUG] 0.125 mM"}, "[6]": {"settings": "[Inhibitor 4] = 0.05 μM, [MUG] 0.25 mM"}, "[7]": {"settings": "[Inhibitor 4] = 0.05 μM, [MUG] 0.5 mM"}, "[8]": {"settings": "[Inhibitor 4] = 0.15 μM, [MUG] 0.08 mM"}, "[9]": {"settings": "[Inhibitor 4] = 0.15 μM, [MUG] 0.125 mM"}, "[10]": {"settings": "[Inhibitor 4] = 0.15 μM, [MUG] 0.25 mM"}, "[11]": {"settings": "[Inhibitor 4] = 0.15 μM, [MUG] 0.5 mM"}, "[12]": {"settings": "[Inhibitor 4] = 0.3 μM, [MUG] 0.08 mM"}, "[13]": {"settings": "[Inhibitor 4] = 0.3 μM, [MUG] 0.125 mM"}, "[14]": {"settings": "[Inhibitor 4] = 0.3 μM, [MUG] 0.25 mM"}, "[15]": {"settings": "[Inhibitor 4] = 0.3 μM, [MUG] 0.5 mM"}, "[16]": {"settings": "[Inhibitor 4] = 0.6 μM, [MUG] 0.08 mM"}, "[17]": {"settings": "[Inhibitor 4] = 0.6 μM, [MUG] 0.125 mM"}, "[18]": {"settings": "[Inhibitor 4] = 0.6 μM, [MUG] 0.25 mM"}, "[19]": {"settings": "[Inhibitor 4] = 0.6 μM, [MUG] 0.5 mM"}},
  "note": "Several values for one entry are separate records, joined by “and”; a condition that tells them apart may be missing. Identical values can stand only once. Like-named read-outs stand apart in the source and are kept apart here.",
  "data": [
    {"smiles": "CCCCCCCCC[C@@H]1NC[C@@H](O)[C@H](O)[C@H]1C(=O)O", "note": "[Inhibitor 4, C6-nonyl UIFG]", "values": [
      {"measurement": "Ki", "setting": "[1]", "result": 4.5, "unit": "nM"},
      {"measurement": "Ki", "setting": "[1]; 50 mM HEPES pH 7.5, 37 °C", "result": "4.5 ± 0.7", "unit": "nM"},
      {"measurement": "Ki", "setting": "[2]; BdGUS", "result": 440, "unit": "nM"},
      {"measurement": "1/v", "setting": "[2]; [4]", "result": "0.1206 and 0.1178 and 0.1199"},
      {"measurement": "GUS activity (hydrolysis rate of MUG)", "setting": "[2]; [4]", "result": "1.851 and 1.896 and 1.862"},
      {"measurement": "1/v", "setting": "[2]; [5]", "result": "0.09548 and 0.09298 and 0.09392"},
      {"measurement": "GUS activity (hydrolysis rate of MUG)", "setting": "[2]; [5]", "result": "2.339 and 2.4016 and 2.377"},
      {"measurement": "1/v", "setting": "[2]; [6]", "result": "0.06502 and 0.06335 and 0.06665"},
      {"measurement": "GUS activity (hydrolysis rate of MUG)", "setting": "[2]; [6]", "result": "3.434 and 3.525 and 3.35"},
      {"measurement": "1/v", "setting": "[2]; [7]", "result": "0.04786 and 0.04662 and 0.0491"},
      {"measurement": "GUS activity (hydrolysis rate of MUG)", "setting": "[2]; [7]", "result": "4.665 and 4.79 and 4.548"},
      {"measurement": "1/v", "setting": "[2]; [8]", "result": "0.1451 and 0.1465 and 0.1466"},
      {"measurement": "GUS activity (hydrolysis rate of MUG)", "setting": "[2]; [8]", "result": "1.539 and 1.524 and 1.523"},
      {"measurement": "1/v", "setting": "[2]; [9]", "result": "0.1144 and 0.1135 and 0.113"},
      {"measurement": "GUS activity (hydrolysis rate of MUG)", "setting": "[2]; [9]", "result": "1.951 and 1.968 and 1.976"},
      {"measurement": "1/v", "setting": "[2]; [10]", "result": "0.07405 and 0.07448 and 0.0755"},
      {"measurement": "GUS activity (hydrolysis rate of MUG)", "setting": "[2]; [10]", "result": "3.015 and 2.998 and 2.957"},
      {"measurement": "1/v", "setting": "[2]; [11]", "result": "0.05196 and 0.05207 and 0.05497"},
      {"measurement": "GUS activity (hydrolysis rate of MUG)", "setting": "[2]; [11]", "result": "4.298 and 4.288 and 4.062"},
      {"measurement": "1/v", "setting": "[2]; [12]", "result": "0.2039 and 0.1961 and 0.2029"},
      {"measurement": "GUS activity (hydrolysis rate of MUG)", "setting": "[2]; [12]", "result": "1.095 and 1.138 and 1.1007"},
      {"measurement": "1/v", "setting": "[2]; [13]", "result": "0.1529 and 0.1514 and 0.1472"},
      {"measurement": "GUS activity (hydrolysis rate of MUG)", "setting": "[2]; [13]", "result": "1.4607 and 1.475 and 1.517"},
      {"measurement": "1/v", "setting": "[2]; [14]", "result": "0.09524 and 0.09338 and 0.09505"},
      {"measurement": "GUS activity (hydrolysis rate of MUG)", "setting": "[2]; [14]", "result": "2.344 and 2.391 and 2.349"},
      {"measurement": "1/v", "setting": "[2]; [15]", "result": "0.06409 and 0.06318 and 0.06381"},
      {"measurement": "GUS activity (hydrolysis rate of MUG)", "setting": "[2]; [15]", "result": "3.484 and 3.534 and 3.499"},
      {"measurement": "1/v", "setting": "[2]; [16]", "result": "0.286 and 0.2822 and 0.2849"},
      {"measurement": "GUS activity (hydrolysis rate of MUG)", "setting": "[2]; [16]", "result": "0.7809 and 0.7911 and 0.7837"},
      {"measurement": "1/v", "setting": "[2]; [17]", "result": "0.2142 and 0.2187 and 0.2123"},
      {"measurement": "GUS activity (hydrolysis rate of MUG)", "setting": "[2]; [17]", "result": "1.043 and 1.021 and 1.052"},
      {"measurement": "1/v", "setting": "[2]; [18]", "result": "0.1255 and 0.1264 and 0.1244"},
      {"measurement": "GUS activity (hydrolysis rate of MUG)", "setting": "[2]; [18]", "result": "1.779 and 1.767 and 1.7944"},
      {"measurement": "1/v", "setting": "[2]; [19]", "result": "0.08292 and 0.0812 and 0.08265"},
      {"measurement": "GUS activity (hydrolysis rate of MUG)", "setting": "[2]; [19]", "result": "2.693 and 2.75 and 2.702"},
      {"measurement": "IC50", "setting": "[3]", "result": 3.69, "unit": "nM"},
      {"measurement": "Ki", "setting": "HsGUS (human GUS); HsGUS, 50 mM sodium acetate pH 4.5, 37 °C", "result": 105000, "unit": "nM"},
      {"measurement": "GUS activity (hydrolysis rate of MUG)", "setting": "HsGUS (human GUS); [Inhibitor 4] =32 μM, [MUG] 0.1 mM", "result": "862.058 and 811.68"}
    ]}
  ]
}
